Experimental data as given in ChEMBL document CHEMBL2407082, “Tetrahydroquinoline-derived macrocyclic toolbox: the discovery of antiangiogenesis agents in zebrafish assay” (ACS Med Chem Lett, 2013).
Calls of active or inactive are those of the source. The calls are words filed in the database; no cut-off is given here.

Tests used:
Danio rerio [1] = organism: Danio rerio; test: Inhibition of AB zebrafish early embryo development assessed as delay in epiboly at 2.5 uM after 10 hrs post fertilization by inverted microscopic analysis; assay type: functional, organism-based
Danio rerio [2] = organism: Danio rerio; test: Antiangiogenic activity in transgenic zebrafish embryo expressing EGFP at 2.5 uM after 36 hrs post fertilization by inverted microscopic analysis; assay type: functional, organism-based

Compound: C=CCOC(=O)N1c2cc3c(cc2[C@@H]2OC(C)(C)O[C@H]2[C@@H]1CCN(Cc1ccc(F)cc1)C(=O)[C@H](CC(C)C)NC(=O)OCC1c2ccccc2-c2ccccc21)OCO3
- inhibition (Danio rerio [1]): Active

Compound: C=CCOC[C@H](Cc1ccccc1)NC(=O)C[C@@H]1Nc2cc3c(cc2[C@@H]2OC(C)(C)O[C@@H]12)OCO3
- inhibition (Danio rerio [2]): Active

Compound: C=CCOC(=O)N1c2cc3c(cc2[C@@H]2OC(C)(C)O[C@H]2[C@@H]1CCO)OCO3
- inhibition (Danio rerio [1]): Active
- inhibition (Danio rerio [2]): Active

Compound: CC(C)C[C@@H]1NC(=O)C[C@H]2[C@@H]3OC(C)(C)O[C@H]3c3cc4c(cc3N2C/C=C\COC1=O)OCO4
- inhibition (Danio rerio [2]): Active

Compound: CC[C@H](C)[C@@H]1NC(=O)C[C@H]2[C@@H]3OC(C)(C)O[C@H]3c3cc4c(cc3N2C/C=C\COC1=O)OCO4
- inhibition (Danio rerio [1]): Active
